Experiments:
[1] = tested on: adult patients with nocturia; test: Change in urine volume (nocturnal, total) from baseline to Day 28 (Part I); assay type: in vivo, human; details: for median decrease of nocturnal urine volume compared to baseline before treatment: Day 28; for Change from baseline to final visit (Day 28) of nocturnal urine volume, mean / Change from baseline to final visit (Day 28) of nocturnal urine volume, median: ITT, Part I
Method: As used herein, the term “nocturnal urine” refers to the total urine volume from 5 minutes after bedtime until rising in the morning, including the first void within 30 minutes of rising.
(§1) All treatments were administered orally once per night approximately 1 hour prior to bedtime; subjects were instructed to limit their fluid intake prior to drug self-administration. […] Randomization was to be stratified by age (<65, ≥65 years) and by the absence/presence of nocturnal polyuria, defined as a ratio of nighttime urine volume/24-hour urine volume 33%. To achieve the desired number of subjects within each stratum, enrollment of subjects in a particular stratum (age and/or presence/absence of nocturnal polyuria) could be halted. If this was necessary, all investigative sites were to be informed in writing at least 1 week in advance to stop screening in a population of subjects.
Changes in urine volume from baseline to the end of Day 28 were also assessed and included herein.
Missing values concerning number of nocturnal voids at Day 8, Day 15, Day 22, and Day 28 in Part I were imputed using last observation carried forward (LOCF). Missing values concerning sleep disturbance and urine volume (for average 24-hour urine volume and average nocturnal urine volume) were not imputed.

[2] = tested on: adult patients with nocturia; test: Duration of total sleep time, change from baseline to Day 28 (Part I); assay type: in vivo, human; details: final visit (Day 28)
Method: as §1
The secondary efficacy endpoints were: (1) durability of effect achieved in Part I; (2) change in initial period of undisturbed sleep, defined as the elapsed time in minutes from going to bed with the intention of sleeping to the time of awakening for the first nocturnal void; and (3) change in duration of total sleep time. Additional secondary endpoints were collected, e.g., change in nocturia-specific quality of life as assessed by scores on the International Consultation on Incontinence Modular Questionnaire—Noctuira and the Noctuira Quality of Life Questionnaire, change in quality of sleep as assessed by the global score of the Pittsburgh Sleep Quality Index, and change in overall quality of life as assessed by the short form—12v2. A description of the additional secondary efficacy endpoints and their accompanying data are not provided herein.
Total sleep time increased in all treatment groups in Part I; however, no pattern was observed by dose of desmopressin. Based on F-tests of effects, computed overall sleep duration and reported overall sleep duration were statistically significant predictors of change from baseline to Day 28 in total sleep time (p<0.0001).

[3] = 10 ug, females over 50 years of age
[4] = 25 ug, females over 50 years of age
[5] = 50 ug, females over 50 years of age
[6] = 100 ug, females over 50 years of age
[7] = all males with monitoring, 10 ug dose
[8] = all males with monitoring, 25 ug dose
[9] = all males with monitoring, 50 ug dose
[10] = all males with monitoring, 100 ug dose
[11] = females over 65 years of age, 10 ug dose
[12] = females over 65 years of age, 25 ug dose
[13] = females over 65 years of age, 50 ug dose
[14] = females over 65 years of age, 100 ug dose

In the case of `NC(=O)CC[C@@H]1NC(=O)[C@H](Cc2ccccc2)NC(=O)[C@H](Cc2ccc(O)cc2)NC(=O)CCSSC[C@@H](C(=O)N2CCC[C@H]2C(=O)N[C@H](CCCN=C(N)N)C(=O)NCC(N)=O)NC(=O)[C@H](CC(N)=O)NC1=O` [desmopressin], the “median decrease of nocturnal urine volume compared to baseline before treatment” value (“median decrease” for short) ([1]; 10 μg, all females) is reported as 179 mL, the “Change from baseline to final visit (Day 28) of nocturnal urine volume, mean” value (“Change from baseline to final visit … mean” below) ([1]; 10 ug, all females) is reported as -207 mL and the “Change from baseline to final visit (Day 28) of nocturnal urine volume, median” value (shortened to “Change from baseline to final visit … median”) ([1]; 10 ug, all females) is reported as -179 mL. The “median decrease” value ([1]; 10 μg, all groups) was 150 mL, the “Change from baseline to final visit … mean” value ([1]; 10 ug, all groups) was -164 mL and the “Change from baseline to final visit … median” value ([1]; 10 ug, all groups) was -150 mL. The “median decrease” value ([1]; 10 μg, females over 50 years of age) was 150 mL, the “Change from baseline to final visit … mean” value [1, 3] was -197 mL and the “Change from baseline to final visit … median” value [1, 3] was -150 mL. The “median decrease” value ([1]; 25 μg, all females) was 298 mL, the “Change from baseline to final visit … mean” value ([1]; 25 ug, all females) was -307 mL and the “Change from baseline to final visit … median” value ([1]; 25 ug, all females) was -298 mL. For the same compound, the “Change from baseline to final visit … mean” value ([1]; 25 ug, all groups) was -224 mL, the “Change from baseline to final visit … median” value ([1]; 25 ug, all groups) was -233 mL and the “median decrease” value ([1]; 25 μg, females over 50 years of age) was 383 mL. For the same compound, the “Change from baseline to final visit … mean” value [1, 4] was -356 mL, the “Change from baseline to final visit … median” value [1, 4] was -383 mL and the “median decrease” value ([1]; 25 μg, females over 65 years of age) was 383 mL. For the same compound, the “Change from baseline to final visit … mean” value ([1]; 50 ug, all females) was -257 mL, the “Change from baseline to final visit … median” value ([1]; 50 ug, all females) was -204 mL and the “Change from baseline to final visit … mean” value ([1]; 50 ug, all groups) was -272 mL. The “Change from baseline to final visit … median” value ([1]; 50 ug, all groups) was -233 mL, the “Change from baseline to final visit … mean” value [1, 5] was -249 mL and the “Change from baseline to final visit … median” value [1, 5] was -196 mL. The “Change from baseline to final visit … mean” value ([1]; 100 ug, all females) was -321 mL, the “Change from baseline to final visit … median” value ([1]; 100 ug, all females) was -283 mL and the “Change from baseline to final visit … mean” value ([1]; 100 ug, all groups) was -312 mL. The “Change from baseline to final visit … median” value ([1]; 100 ug, all groups) was -283 mL, the “Change from baseline to final visit … mean” value [1, 6] was -317 mL and the “Change from baseline to final visit … median” value [1, 6] was -275 mL. The “median decrease” value ([1]; 100 μg, males with monitoring) was 264 mL, the “Change from baseline to final visit … mean” value [1, 7] was -122 mL and the “Change from baseline to final visit … median” value [1, 7] was -83 mL. For the same compound, the “Change from baseline to final visit … mean” value [1, 8] was -146 mL, the “Change from baseline to final visit … median” value [1, 8] was -167 mL and the “Change from baseline to final visit … mean” value [1, 9] was -286 mL. For the same compound, the “Change from baseline to final visit … median” value [1, 9] was -235 mL, the “Change from baseline to final visit … mean” value [1, 10] was -296 mL and the “Change from baseline to final visit … median” value [1, 10] was -264 mL. The “Change from baseline to final visit … mean” value ([1]; all males, 10 ug dose) was -125 mL, the “Change from baseline to final visit … median” value ([1]; all males, 10 ug dose) was -117 mL and the “Change from baseline to final visit … mean” value ([1]; all males, 25 ug dose) was -162 mL. The “Change from baseline to final visit … median” value ([1]; all males, 25 ug dose) was -200 mL, the “Change from baseline to final visit … mean” value ([1]; all males, 50 ug dose) was -286 mL and the “Change from baseline to final visit … median” value ([1]; all males, 50 ug dose) was -246 mL. The “Change from baseline to final visit … mean” value ([1]; all males, 100 ug dose) was -306 mL, the “Change from baseline to final visit … median” value ([1]; all males, 100 ug dose) was -270 mL and the “Change from baseline to final visit … mean” value [1, 11] was -91 mL. For the same compound, the “Change from baseline to final visit … median” value [1, 11] was -54 mL, the “Change from baseline to final visit … mean” value [1, 12] was -372 mL and the “Change from baseline to final visit … median” value [1, 12] was -383 mL. The “Change from baseline to final visit … mean” value [1, 13] was -208 mL, the “Change from baseline to final visit … median” value [1, 13] was -203 mL and the “Change from baseline to final visit … mean” value [1, 14] was -323 mL. For the same compound, the “Change from baseline to final visit … median” value [1, 14] was -285 mL, the “Total Sleep Time, Calculated Sleep Time, Change from Baseline, Mean” value ([2]; 10 μg) was 9.7 min and the “Total Sleep Time, Calculated Sleep Time, Change from Baseline, Median” value ([2]; 10 μg) was 10.0 min. The “Total Sleep Time, Reported Sleep Time, Change from Baseline, Mean” value ([2]; 10 μg) was 7.8 min, the “Total Sleep Time, Reported Sleep Time, Change from Baseline, Median” value ([2]; 10 μg) was 10.0 min and the “Total Sleep Time, Calculated Sleep Time, Change from Baseline, Mean” value ([2]; 25 μg) was 19.7 min. The “Total Sleep Time, Calculated Sleep Time, Change from Baseline, Median” value ([2]; 25 μg) was 15.3 min, the “Total Sleep Time, Reported Sleep Time, Change from Baseline, Mean” value ([2]; 25 μg) was 15.9 min and the “Total Sleep Time, Reported Sleep Time, Change from Baseline, Median” value ([2]; 25 μg) was 10.0 min. For the same compound, the “Total Sleep Time, Calculated Sleep Time, Change from Baseline, Mean” value ([2]; 50 μg) was 24.2 min, the “Total Sleep Time, Calculated Sleep Time, Change from Baseline, Median” value ([2]; 50 μg) was 14.2 min and the “Total Sleep Time, Reported Sleep Time, Change from Baseline, Mean” value ([2]; 50 μg) was 24.9 min. The “Total Sleep Time, Reported Sleep Time, Change from Baseline, Median” value ([2]; 50 μg) was 20.0 min, the “Total Sleep Time, Calculated Sleep Time, Change from Baseline, Mean” value ([2]; 100 μg) was 9.7 min and the “Total Sleep Time, Calculated Sleep Time, Change from Baseline, Median” value ([2]; 100 μg) was 12.0 min. For the same compound, the “Total Sleep Time, Reported Sleep Time, Change from Baseline, Mean” value ([2]; 100 μg) was 19.0 min and the “Total Sleep Time, Reported Sleep Time, Change from Baseline, Median” value ([2]; 100 μg) was 20.0 min.

— patent US11963995B2, “Methods comprising desmopressin” (Ferring B.V., priority 2008, dated 2024)
